Reference: ChEMBL document CHEMBL3108723, “Combatting resistant bacteria with the help of Beta-lactamase inhibitors” (2014)

What was measured:
Format in all cases: functional
Pseudomonas aeruginosa [1] = assay: Antibacterial activity against Pseudomonas aeruginosa producing AmpC beta-lactamase assessed as reduction in MIC of ceftazidime at […] by broth microdilution method relative to control
Klebsiella pneumoniae = assay: Antibacterial activity against Klebsiella pneumoniae producing KPC2 beta-lactamase assessed as reduction in MIC of ceftazidime at […] by broth microdilution method relative to control
Pseudomonas aeruginosa [2] = assay: Antibacterial activity against Pseudomonas aeruginosa producing PER-1 and OXA-10 beta-lactamase assessed as reduction in MIC of ceftazidime at […] by broth microdilution method relative to control

Measured: fold change (FC)

CC1=C[C@@H](C(N)=O)N2C[C@@H]1N(OS(=O)(=O)[O-])C2=O.[Na+]
4: Pseudomonas aeruginosa [1] | Klebsiella pneumoniae | Pseudomonas aeruginosa [2]

CC1=C[C@@H](C(=O)NCc2cc(=O)c(O)c[nH]2)N2C[C@@H]1N(OS(=O)(=O)O)C2=O
4: Pseudomonas aeruginosa [1] | Klebsiella pneumoniae | Pseudomonas aeruginosa [2]

COCC1=C[C@@H](COC)N2C[C@@H]1N(OS(=O)(=O)[O-])C2=O.[Na+]
4: Pseudomonas aeruginosa [1] | Klebsiella pneumoniae | Pseudomonas aeruginosa [2]
